The values that follow come from US8980924B2, “Non-retinoid RBP4 antagonist for treatment of age-related macular degeneration and stargardt disease” (The Trustees of Columbia University in the City of New York, priority 2010, dated 2015).

Data set [1] has as its target T1, RBP4-TTR interaction (Homo sapiens, UniProt P02753).
T1 construct: made in house; host or cells: E. coli
Briefly: TR-FRET (HTRF) RBP4-TTR interaction assay, agonist mode. The format is biochemical. Conditions: without retinol, FIG. 8. An excerpt: TR-FRET (Time-Resolved Fluorescence Resonance Energy Transfer) is an assay format that can be used in characterization of compounds affecting protein-protein interactions (31-33). […] In the presence of retinol, RBP4-TTR interaction induces FRET that can be registered as increased ratio of […] fluorescence signals. Binding of a desired RBP4 antagonist displaces retinol and induces hindrance for RBP4-TTR interaction resulting in the decreased FRET signal (FIG. 7).
The inventors developed an assay using E. coli-expressed MBP-tagged RBP4 and commercially available TTR labeled directly with Eu3+ cryptate. In addition to MBP-RBP4 and Eu3+ (K)-TTR, a detector reagent anti-MBP-d2 was present in the mix. The assay was first optimized in the agonist mode; sensitivity and dynamic range of the assay was […] in respect to RBP4, TTR and detection reagent concentrations.
On the technique in general: In TR-FRET formats the signal depends on donor and acceptor labels being close together.

Data set [2] deals with T2, serum RBP4 (Mus musculus, UniProt Q00724).
T2 construct: from tissue; host or cells: mouse serum (in vivo, oral dosing)
Briefly: Serum RBP4 level in treated mice. The format is in vivo. Conditions: orally dosed for 3 weeks at 30 mg/kg; wild-type and Abca4−/− mice; FIG. 11. An excerpt:
(§1) The Abca4−/− mouse model manifests accelerated accumulation of lipofuscin in the RPE and is considered a preclinical efficacy model for a drug reducing lipofuscin accumulation. […] There was approximately a 70% reduction in the serum RBP4 level in treated animals (FIG. 11). Additionally, the inventors discovered that that the levels of A2E/isoA2E were reduced by approximately 50% in treated mice (FIG. 12).

The test system of data set [3] is bisretinoids (A2E/isoA2E, A2-DHP-PE, atRAL di-PE). As to the kind of experiment: Bisretinoid levels in eyes of treated mice (tissue extraction and HPLC). The format is in vivo. Conditions: orally dosed for 3 weeks at 30 mg/kg.
Source text: as §1
Abca4/Abcr null mutant mice (albino) homozygous for Rpe65-Leu450 are bred genotyped and housed. Posterior eyecups of mice and RPE/choroids harvested from human donor eyes (National Disease Research Interchange, Philadelphia Pa.) are homogenized in phosphate buffered saline (PBS) using a glass tissue grinder and extracted in chloroform/methanol (2:1). […] An Alliance system (Waters, Corp, Milford, Mass.) equipped with 2695 Separation Module, 2996 Photodiode Array Detector, a 2475 Multi λ Fluorescence Detector and operating with Empower® software is used for HPLC analysis. […] HPLC quantification is carried out using the Empower® software to determine peak areas. […] Molar quantity per murine eye is determined using calibration curves constructed from known concentrations of purified external standards and by normalizing to the ratio of the HPLC injection volume (10 μL) versus total extract volume.

The test system of data set [4] is ERG b-wave. As to the kind of experiment: ERG b-wave after photobleaching. Conditions: FIG. 10. The format is in vivo.
The test system of data set [5] is insulin sensitivity. Conditions: mouse diabetes models; cited from earlier work.
Data set [6] has as its target serum RBP4 and retinol (Rattus norvegicus, UniProt P04916). Conditions: reference 15; cited from earlier work.
The subject of data set [7] is A2E production. Conditions: Abca4−/− mice, reference 11; cited from earlier work.

In the case of `O=C(O)c1ccccc1NC(=O)N1CCC(c2ccccc2C(F)(F)F)CC1` [Compound 1, 2(4-(2-(trifluoromethyl)phenyl)piperidine-1-carboxamido)benzoic acid], in data set [1], the “induction of RBP4-TTR interaction” value is “did not induce RBP4-TTR interaction”. Besides, the “reduction in the serum RBP4 level” value in data set [2] is ~70%. The “levels of A2-DHP-PE and atRAL di-PE” value in data set [3] is “also reduced”. Also, the “effect on ERG b-wave after photobleaching” value in data set [4] is given as “does not reduce ERG b-wave”. Moreover, the “effect on insulin sensitivity” value in data set [5] is “did not improve insulin sensitivity”.

On to `CC1=C(/C=C/C(C)=C/C=C/C(C)=C/C(=O)Nc2ccc(O)cc2)C(C)(C)CCC1` [fenretinide, N-(4-hydroxy-phenyl)retinamide], for which the “induction of RBP4-TTR interaction” value in data set [1] is “did not induce RBP4-TTR interaction”. Moreover, the “effect on serum RBP4 and retinol” value in data set [6] was “reduce serum RBP4 and retinol”. Moreover, in data set [7], the “effect on A2E production” value is recorded as “reduced A2E production”.
